Assay results from patent US11090317B2, “Aminophosphinic derivatives for preventing and treating eye inflammation” (priority 2017, dated 2021).
Entries after “also recorded” stand apart in the source; their conditions may differ.

Assays:
corneal epithelium = details: topical administration, versus non-treated corneas, cited from earlier work
[1] = system: Iba1 (ionized calcium binding adaptor molecule 1); assay: Iba1 immuno-histology in trigeminal ganglion, inflammatory keratitis model induced by LPS; format: in vivo, mice; details: LPS inflammation model; twice-daily instillation of 10 mM for 5 days
Description: (§1) ATF3 (activating transcription factor 3) is a transcription factor of the family of ATF which modulates the inflammatory response of several diseases. In physiological conditions, the primary sensory neurones express very little ATF3. An increase in the number of positive neurones for ATF-3 then underlines neuronal suffering linked to an inflammatory process. In the same way, Iba1 (ionized calcium-binding adapter molecule 1) is expressed in the microglial cells activated by the presence of macrophages and thus by an inflammatory process.
(§2) Two hours after the final instillation of LPS, a mixture of 300 μL of ketamine […] (100 mg/kg of body weight) and xylazine (10 mg/kg of body weight, Virbac, France) was injected by intraperitoneal route to deeply anaesthetise the animals. After fixation, the trigeminal ganglia and the eyes were carefully dissected and post-fixated for 48 h in the same fixation mixture. Sections (40 μm) of the complex of the trigeminal sub-nucleus ([…]) were formed using a Vibratom (Leica Microsystems, Germany). The TG were placed in a 10% solution of sucrose in 1×PBS (overnight), then in a 30% solution of sucrose before freezing at −20° C. in a mixture of 7.5% gelatine and 10% sucrose. Sections (14 μm) were made in the cryostat for the TG and the eyes and conserved at −20° C. […]

[2] = system: ATF3 (activating transcription factor 3); assay: ATF3 immuno-histology in trigeminal ganglion, inflammatory keratitis model induced by LPS; format: in vivo, mice; details: LPS inflammation model; twice-daily instillation of 10 mM for 5 days
Description: as §1, §2

cornea = assay: Corneal inflammation by in vivo confocal microscopy in inflammatory model induced by LPS (corneal scratch); design: species or system mice C57Bl/6; details: twice-daily instillation of 10 mM for 5 consecutive days; scratch + LPS 50 μg (1× or 2×); evaluated on the 5th day
Experimental: A corneal epithelial lesion (abrasion designated “scratch” in the figures) is made on the right eye of male mice C57Bl/6, 8 weeks old, using a trephine (diameter 1.5 mm) on the anaesthetised animal (isoflurane). A drop (10 μl) of LPS (50 μg) is […] deposited on the injured area and is left in contact with the cornea until the animal awakens. The experimentalist ensures the animal awakens correctly, which occurs within two minutes following the intervention.
The first topical treatment using a solution of PBS (phosphate buffer pH=7.4) (1×) or a solution of compound 1 (10 mM of compound 1 in a solution of PBS (1×)) was carried out 2 h after the instillation of LPS. This treatment was extended 2 times a day for 5 days. Four animal cages were studied:
The eye inflammation of the mice was evaluated on the 5th day using a confocal microscope in vivo. This enable images to be obtained (cellular and intercellular definition) of the cornea including the corneal epithelium, the nerve plexus, the stroma and the endothelium thanks to a capsule (Tomocap)/corneal module of the apparatus placed in contact with the cornea. The morphological changes of all the cells constituting the cornea and the corneal nerves are easily observable and quantifiable. All of the animals were anaesthetised by intraperitoneal injection (ketamine 100 mg/kg and xylazine 10 mg/kg). […]

SMILES	development of an oedema of the stroma (corneal epithelium; 12 h after treatment)	infiltration of immune cells (corneal epithelium)	Iba1 in the trigeminal ganglion (coloration of activated microglial cells expressing Iba-1) versus PBS control group [1]	expression of ATF3 in the trigeminal ganglion versus PBS control group [2]	eye inflammation of the corneas (confocal images) compared to PBS 1× (cornea)
CN1CC[C@]23c4c5ccc(O)c4O[C@H]2[C@@H](O)C=C[C@H]3[C@H]1C5 [morphine]	retard the development of an oedema of the stroma	very few immune cells present	–	–	–
CC(OC(=O)N[C@@H](C)P(=O)([O-])C[C@@H](Cc1ccc(-c2ccccc2)cc1)C(=O)N[C@@H](C)C(=O)[O-])OC(=O)C(C)C.[Na+].[Na+] (some centres unmarked) [compound 1]	–	–	considerably reduces the coloration of activated microglial cells expressing Iba-1; also recorded: reduce significantly	considerably reduces the expression of ATF3; also recorded: reduce significantly	less inflammatory
